According to patent publication EP2045247B1, “Compounds for the inhibition of histone deacetylase” (NatureWise Biotech & Medicals Corporation, priority 2007, dated 2009):

Tests used:
rat C6 glioma cells [1] = assay: Inhibition of growth of rat C6 glioma cells (observation and cell counting); type: cell-based; details: 2.5, 5 and 10 µg/mL, 48 hours; cell density and cell counting (Fig. 1)
Protocol: The cancer cell line, rat C6 glioma cells, was cultured in Dulbecco's modified Eagle's medium (DMEM; Gibco) supplemented with penicillin G, streptomycin sulphate, 0.5 mM of L-glutamine and 10% fetal bovine serum (FBS; Gibco) at 37 °C, 5% CO2 and 95% relative humidity. For all experiments, the cells were seeded at a density of 3×10^5 per well in 6-well plates. After 24 hours, the cells were treated with different concentrations of the compound NBM-HD-1 (i.e., the compound of formula III depicted herein). After 48 hours, the cells were observed and counted. According to the results shown in Fig. 1, NBM-HD-1 can arrest the growth of rat C6 glioma cells. After the C6 glioma cells were incubated with 2.5 µg/mL (see Fig. 1(A)-b), 5 µg/mL (see Fig. 1(A)-c) and 10 µg/mL (see Fig. 1(A)-d) of NBM-HD-1 for 48 hours, the density of the cells reduced dramatically in comparison with that of control (see Fig. 1(A)-a).

rat C6 glioma cells [2] = assay: Cell cycle analysis of C6 glioma cells, DNA content by PI staining and FACScan cytometry; type: cell-based; details: 0, 2.5, 5 and 10 µg/mL, 72 hours (Fig. 2)
Protocol: (§1) 1×10^6 of rat C6 glioma cells were treated with various concentrations of NBM-HD-1 (0 µg/mL, 2.5 µg/mL, 5 µg/mL, and 10 µg/mL) for 72 hours. The treated cells were trysinized and collected. The cells were resuspended in 200 µL PBS and then fixed by adding 800 µL of cold 100% ethanol. The resulting cells were fixed overnight at -20[…]. The cell pellets were collected by centrifugation, resuspended in 1 mL of hypotonic buffer (0.5% Triton X-100 in PBS and 1 µg/mL RNase A), and incubated at 37 °C for 30 minutes. Then, 1 mL of PI solution (50 µg/mL) was added to the resulting cell pellets. The mixture was allowed to stand at 4[…] for 30 min. The DNA amounts of the cells were analyzed by FACScan Cytometry (Becton Dickinson) (see Fig. 2).

rat C6 glioma cells [3] = assay: RT-PCR of cell cycle regulator mRNA in C6 glioma cells; type: cell-based; details: GAPDH internal control (Fig. 3)
Protocol: For the rat C6 glioma cells, the cell cycle related to mRNA expression was examined by RT-PCR. The total RNAs were isolated from the treated C6 cells by using the RNeasy Mini Kit (Qiagen) according to the manufacturer's instructions. The cDNAs were produced from 500ng of total RNAs using ReverTra-Plus-TM (TOYOBO). The RT product (1µl) was amplified by PCR with primers to analyze several genes of cell cycle by using GAPDH as an internal control. According to the results of Fig. 3, NBM-HD-1 can modulate the expression of some cell cycle regulators. […] On the contrary, the expression of p21 was increased.

GFAP = GFAP expression in C6 glioma cells (immuno-fluorescent staining and RT-PCR), differentiation marker; type: cell-based, rat
Protocol: After the C6 glioma cells were incubated with 10 µg/mL NBM-HD-1 for 24 hours, they were fixed and analyzed by the traditional immuno-fluorescent staining method. Staining of glia was carried out by using glial-specific GFAP antibody (SIGMA) as the primary antibody and a fluorescence labeled rabbit immuno-globulin (SIGMA) as the secondary antibody to bind with the primary antibody. The cells which are GFAP-positive were excited by a specific light source to emit fluorescence. Also, the nuclei were stained with DAPI. […] In contrast with the control group, more GFAP proteins were detected in the photos of the cells being treated with 10 µg/mL of NBM-HD-1.
The GFAP mRNA expression was examined by RT-PCR.

[4] = test system: human giloblastoma DBTRG-05MG cancer cells; assay: Inhibition of growth and change of morphology of DBTRG-05MG cells; type: cell-based
Protocol: The human giloblastoma DBTRG-05MG cancer cells were cultured in RPMI medium 1640 (Gibco) supplemented with penicillin G, streptomycin sulphate, 0.5 mM of L-glutamine and 10% fetal bovine serum (FBS; Gibco), 100mh/L sodium pyruvate (Gibco), and 1% NEAA (Gibco) at 37 °C, 5% CO2 and 95% relative humidity. For these experiments, the cells were seeded at a density of 3×10^5 per well of 6-well plates. After 24 hours, the cells were treated with different concentrations of NBM-HD-1 and 4 mM sodium butyrate. The cells were observed and counted after 72 hours. […] In 05MG cells (Fig. 7(A)), after incubation with 2.5 µg/mL (Fig. 7(A)-b), 5 µg/mL (Fig. 7(A)-c) and 10 µg/mL (Fig.7(A)-d) of NBM-HD-1 for 72 hours, the density of the cells reduced dramatically in comparison with that of the control group (Fig. 7(A)-a). The 05MG cells in the experimental group also changed to become longer than those in the control group.

MCF-7 cancer cells = assay: Cell cycle analysis of MCF-7 cells by FACScan cytometry; type: cell-based, human; details: 0, 2.5, 5 and 10µg/mL, 72 hours (Fig. 9)
Protocol: as §1
MCF-7 cancer cells (1×10^6) in a 100-mm dish were treated with various concentrations of NBM-HD-1 (0, 2.5, 5, and 10µg/mL) or 4mM sodium butyrate for 72 hours. The samples were prepared following the steps mentioned in [0063]. The DNA of the cells was then analyzed by FACScan cytometry (Becton Dickinson). […] The percentage of G0/G1 phase increased from 74.46 to 92.55 in a dose-dependent manner.

## COc1cc2c(c(OC)c1CCC(C)(C)O)C(=O)C[C@@H](c1ccc(OC)c(OC)c1C/C=C(\C)CCCC(C)(C)O)O2 [NBM-HD-1]
Rat C6 glioma cells [1]
  growth of C6 glioma cells: can inhibit the growth of C6 glioma cells in a dose-dependent manner
Rat C6 glioma cells [2]
  cell cycle (DNA contents): cell cycle arrest on the G0/G1 phase in a dose-dependent manner
Rat C6 glioma cells [3]
  expression of cyclinB1: decrease the expression of cyclinD1 and cyclinB1 in a dose-dependent manner
  expression of cyclinD1: decrease the expression of cyclinD1 and cyclinB1 in a dose-dependent manner
  expression of p21: increased
GFAP; 10 µg/mL, 24 hours (Fig. 4(A))
  GFAP expression (immuno-fluorescent staining): can induce the GFAP expression of C6 glioma cancer cells
GFAP; RT-PCR (Fig. 4(B))
  GFAP mRNA expression: increased in a dose-dependent manner
[4]; 2.5, 5 and 10 µg/mL, 72 hours (Fig. 7(A))
  morphology of 05MG cancer cells: change the morphology of 05MG cancer cells
[4]; NBM-HD-1 2.5, 5 and 10 µg/mL, sodium butyrate 4 mM, 72 hours, density and cell counting (Fig. 7)
  growth of 05MG cells: can inhibit the growth of 05MG cells in a dose-dependent manner
MCF-7 cancer cells
  S and G2/M phases of the cells: significantly decreased both S and G2/M phases of the cells in a dose-dependent manner
